Results published in patent US11224601B1, “Compounds that inhibits MCL-1 protein” (priority 2017, dated 2022).

Each compound was assayed against recombinant human Mcl-1 (Mcl-1/Bim interaction) (Homo sapiens (Human), UniProt Q07820) (assay: biochemical). Conditions: cell free Mcl-1:Bim TR-FRET; read-out: Mcl-1 HTRF IC50.
recombinant human Mcl-1 (Mcl-1/Bim interaction), sequence (Q07820 171-327): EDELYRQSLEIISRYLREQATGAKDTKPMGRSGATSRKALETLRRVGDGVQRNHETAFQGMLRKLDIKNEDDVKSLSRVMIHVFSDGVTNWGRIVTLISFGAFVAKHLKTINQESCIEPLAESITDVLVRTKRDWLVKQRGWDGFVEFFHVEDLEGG
Assay type: binding
Work on CO[C@@]1(CN2CCN3CCN(C(C)=O)C[C@@H]3C2)/C=C/C[C@H](C)[C@@H](C)S(=O)(=O)NC(=O)c2ccc3c(c2)N(C[C@@H]2CC[C@H]21)C[C@@]1(CCCc2cc(Cl)ccc21)CO3 (single isomer, unassigned) [Example 225] yielded an IC50 of 87 pM. In the case of CO[C@@]1(CN2CCN3CCN(C(C)=O)C[C@@H]3C2)/C=C/C[C@H](C)[C@@H](C)S(=O)(=O)NC(=O)c2ccc3c(c2)N(C[C@@H]2CC[C@H]21)C[C@@]1(CCCc2cc(Cl)ccc21)CO3 (single isomer, unassigned) [Example 226], the IC50 is reported as 57 pM. In the case of CO[C@]1(CN2CCN3CCN(C(C)=O)C[C@@H]3C2)/C=C/C[C@H](C)[C@@H](C)S(=O)(=O)NC(=O)c2ccc3c(c2)N(C[C@@H]2CC[C@H]21)C[C@@]1(CCCc2cc(Cl)ccc21)CO3 (single isomer, unassigned) [Example 229], the IC50 is reported as 619 pM. In the case of CO[C@]1(CN2CCN3CCN(C(C)=O)C[C@@H]3C2)/C=C/C[C@H](C)[C@@H](C)S(=O)(=O)NC(=O)c2ccc3c(c2)N(C[C@@H]2CC[C@H]21)C[C@@]1(CCCc2cc(Cl)ccc21)CO3 (single isomer, unassigned) [Example 230], the IC50 is reported as 51 pM. In the case of C[C@@H]1[C@@H](C)C/C=C/C(O)(CN2CCN3CCCC[C@@H]3C2)[C@@H]2CC[C@H]2CN2C[C@@]3(CCCc4cc(Cl)ccc43)COc3ccc(cc32)C(=O)NS1(=O)=O (single isomer, unassigned) [Example 242], the IC50 is reported as 249 pM. C[C@@H]1[C@@H](C)C/C=C/C(O)(CN2CCN3CCCC[C@@H]3C2)[C@@H]2CC[C@H]2CN2C[C@@]3(CCCc4cc(Cl)ccc43)COc3ccc(cc32)C(=O)NS1(=O)=O (single isomer, unassigned) [Example 243] showed an IC50 of 78 pM. Work on CO[C@@]1(CN2CCN3CCN(C(C)=O)C[C@@H]3C2)/C=C/C[C@H](C)[C@@H](C)S(=O)(=O)NC(=O)c2ccc3c(c2)N(C[C@@H]2CC[C@H]21)C[C@@]1(CCCc2cc(Cl)ccc21)CO3 (stereo in doubt) [Example 214] yielded an IC50 of 71 pM. CO[C@]1(CN2CCN3CCS(=O)(=O)C[C@@H]3C2)/C=C/C[C@H](C)[C@@H](C)S(=O)(=O)NC(=O)c2ccc3c(c2)N(C[C@@H]2CC[C@H]21)C[C@@]1(CCCc2cc(Cl)ccc21)CO3 (stereo in doubt) [Example 215] was tested, and the IC50 was 149 pM. Compound CO[C@]1(CN2CCN3CCS(=O)(=O)C[C@@H]3C2)/C=C/C[C@H](C)[C@@H](C)S(=O)(=O)NC(=O)c2ccc3c(c2)N(C[C@@H]2CC[C@H]21)C[C@@]1(CCCc2cc(Cl)ccc21)CO3 (stereo in doubt) [Example 219] has an IC50 of 73 pM. In the case of CO[C@@]1(CN2CCN3CCN(S(C)(=O)=O)C[C@@H]3C2)/C=C/C[C@H](C)[C@@H](C)S(=O)(=O)NC(=O)c2ccc3c(c2)N(C[C@@H]2CC[C@H]21)C[C@@]1(CCCc2cc(Cl)ccc21)CO3 (stereo in doubt) [Example 228], the IC50 is reported as 200 pM. Work on CCO[C@]1(CN2CCN(C(C)(C)C)CC2)/C=C/C[C@H](C)[C@@H](C)S(=O)(=O)NC(=O)c2ccc3c(c2)N(C[C@@H]2CC[C@H]21)C[C@@]1(CCCc2cc(Cl)ccc21)CO3 [Example 6, (1S,3′R,6′R,7′R,8′E,11′S,12′R)-7′-((4-tert-butyl-1-piperazinyl)methyl)-6-chloro-7′-ethoxy-11′,12′-dimethyl-3,4-dihydro-2H,15′H-spiro[naphthalene-1,22′-[20]oxa[13]thia[1,14]diazatetracyclo[14.7.2.0˜3,6˜.0˜19,24˜]pentacosa[8,16,18,24]tetraen]-15′-one 13′,13′-dioxide] yielded an IC50 of 79 pM. COCC[C@@H]1[C@@H](C)C/C=C/[C@@](CN2CCN(C(C)C)[C@H](C)C2)(OC)[C@@H]2CC[C@H]2CN2C[C@@]3(CCCc4cc(Cl)ccc43)COc3ccc(cc32)C(=O)NS1(=O)=O [Example 12, (1S,3′R,6′R,7′R,8′E,11′S,12′R)-6-chloro-7′-methoxy-12′-(2-methoxyethyl)-11′-methyl-7′-(((3R)-3-methyl-4-(1-methylethyl)-1-piperazinyl)methyl)-3,4-dihydro-2H,15′H-spiro[naphthalene-1,22′-[20]oxa[13]thia[1,14]diazatetracyclo[14.7.2.0˜3,6˜.0˜19,24˜]pentacosa[8,16,18,24]tetraen]-15′-one 13′,13′-dioxide] gave an IC50 of 72 pM. CCO[C@]1(CN2CCN3CCCC[C@@H]3C2)/C=C/C[C@H](C)[C@@H](CCOC)S(=O)(=O)NC(=O)c2ccc3c(c2)N(C[C@@H]2CC[C@H]21)C[C@@]1(CCCc2cc(Cl)ccc21)CO3 [Example 15, (1S,3′R,6′R,7′R,8′E,11′S,12′R)-6-chloro-7′-ethoxy-12′-(2-methoxyethyl)-11′-methyl-7′-((9aR)-octahydro-2H-pyrido[1,2-a]pyrazin-2-ylmethyl)-3,4-dihydro-2H,15′H-spiro[naphthalene-1,22′-[20]oxa[13]thia[1,14]diazatetracyclo[14.7.2.0˜3,6˜.0˜19,24˜]pentacosa[8,16,18,24]tetraen]-15′-one 13′,13′-dioxide] showed an IC50 of 119 pM. CCO[C@]1(CN2CCN(C(C)C)CC2)/C=C/C[C@H](C)[C@@H](CCOC)S(=O)(=O)NC(=O)c2ccc3c(c2)N(C[C@@H]2CC[C@H]21)C[C@@]1(CCCc2cc(Cl)ccc21)CO3 [Example 16, (1S,3′R,6′R,7′R,8′E,11′S,12′R)-6-chloro-7′-ethoxy-12′-(2-methoxyethyl)-11′-methyl-7′-((4-(1-methylethyl)-1-piperazinyl)methyl)-3,4-dihydro-2H,15′H-spiro[naphthalene-1,22′-[20]oxa[13]thia[1,14]diazatetracyclo[14.7.2.0˜3,6˜.0˜19,24˜]pentacosa[8,16,18,24]tetraen]-15′-one 13′,13′-dioxide] gave an IC50 of 65 pM. With CO[C@@]1(CN2CCN(C3COC3)CC2)/C=C/C[C@H](C)[C@@H](C)S(=O)(=O)NC(=O)c2ccc3c(n2)N(C[C@@H]2CC[C@H]21)C[C@@]1(CCCc2cc(Cl)ccc21)CO3 [Example 19, (1S,3′R,6′R,7′S,8′E,11′S,12′R)-6-chloro-7′-methoxy-11′,12′-dimethyl-7′-((4-(3-oxetanyl)-1-piperazinyl)methyl)-3,4-dihydro-2H,15′H-spiro[naphthalene-1,22′-[20]oxa[13]thia[1,14,25]triazatetracyclo[14.7.2.0˜3,6˜.0˜19,24˜]pentacosa[8,16,18,24]tetraen]-15′-one 13′,13′-dioxide] the IC50 was 125 pM. In the case of CC[C@@H]1CC/C=C/[C@@](CN2CCN3CCCC[C@@H]3C2)(OC)[C@@H]2CC[C@H]2CN2C[C@@]3(CCCc4cc(Cl)ccc43)COc3ccc(cc32)C(=O)N(C)S1(=O)=O [Example 33, (1S,3′R,6′R,7′R,8′E,12′R)-6-chloro-12′-ethyl-7′-methoxy-14′-methyl-7′-((9aR)-octahydro-2H-pyrido[1,2-a]pyrazin-2-ylmethyl)-3,4-dihydro-2H,15′H-spiro[naphthalene-1,22′-[20]oxa[13]thia[1,14]diazatetracyclo[14.7.2.0˜3,6˜.0˜19,24˜]pentacosa[8,16,18,24]tetraen]-15′-one 13′,13′-dioxide], the IC50 is reported as 8250 pM. C[C@@H]1[C@@H](C)C/C=C/[C@@](O)(CN2CCOC[C@@H]2Cn2ccnc2)[C@@H]2CC[C@H]2CN2C[C@@]3(CCCc4cc(Cl)ccc43)COc3ccc(cc32)C(=O)NS1(=O)=O [Example 100, (1S,3′R,6′R,7′S,8′E,11′S,12′R)-6-chloro-7′-hydroxy-7′-(((3S)-3-(1H-imidazol-1-ylmethyl)-4-morpholinyl)methyl)-11′,12′-dimethyl-3,4-dihydro-2H,15′H-spiro[naphthalene-1,22′-[20]oxa[13]thia[1,14]diazatetracyclo[14.7.2.0˜3,6˜.0˜19,24˜]pentacosa[8,16,18,24]tetraen]-15′-one 13′,13′-dioxide] was tested, and the IC50 was 188 pM. C[C@@H]1[C@@H](C)C/C=C/[C@@](O)(CNC(C)(C)C)[C@@H]2CC[C@H]2CN2C[C@@]3(CCCc4cc(Cl)ccc43)COc3ccc(cc32)C(=O)NS1(=O)=O [Example 125, (1S,3′R,6′R,7′S,8′E,11′S,12′R)-7′-((tert-butylamino)methyl)-6-chloro-7′-hydroxy-11′,12′-dimethyl-3,4-dihydro-2H,15′H-spiro[naphthalene-1,22′-[20]oxa[13]thia[1,14]diazatetracyclo[14.7.2.0˜3,6˜.0˜19,24˜]pentacosa[8,16,18,24]tetraen]-15′-one 13′,13′-dioxide] gave an IC50 of 6100 pM. CC(C)N(CCO)C[C@]1(O)/C=C/C[C@H](C)[C@@H](C)S(=O)(=O)NC(=O)c2ccc3c(c2)N(C[C@@H]2CC[C@H]21)C[C@@]1(CCCc2cc(Cl)ccc21)CO3 [Example 126, (1S,3′R,6′R,7′S,8′E,11′S,12′R)-6-chloro-7′-hydroxy-7′-(((2-hydroxyethyl)(1-methylethyl)amino)methyl)-11′,12′-dimethyl-3,4-dihydro-2H,15′H-spiro[naphthalene-1,22′-[20]oxa[13]thia[1,14]diazatetracyclo[14.7.2.0˜3,6˜.0˜19,24˜]pentacosa[8,16,18,24]tetraen]-15′-one 13′,13′-dioxide] was tested, and the IC50 was 627 pM. In the case of C[C@@H]1[C@@H](C)C/C=C/[C@]2(CN(Cc3ccccc3)CCO2)[C@@H]2CC[C@H]2CN2C[C@@]3(CCCc4cc(Cl)ccc43)COc3ccc(cc32)C(=O)NS1(=O)=O [Example 138, (1S,3′R,6′R,7′R,8′E,11′S,12′R)-4″-benzyl-6-chloro-11′,12′-dimethyl-3,4-dihydro-2H,15′H-dispiro[naphthalene-1,22′-[20]oxa[13]thia[1,14]diazatetracyclo[14.7.2.0˜3,6˜.0˜19,24˜]pentacosa[8,16,18,24]tetraene-7′,2″-[1,4]oxazinan]-15′-one 13′,13′-dioxide], the IC50 is reported as 26700 pM. With CO[C@@]1(CN2CCN(CC(=O)O)CC2)/C=C/C[C@H](C)[C@@H](C)S(=O)(=O)NC(=O)c2ccc3c(c2)N(C[C@@H]2CC[C@H]21)C[C@@]1(CCCc2cc(Cl)ccc21)CO3 [Example 270, (4-(((1S,3′R,6′R,7′S,8′E,11′S,12′R)-6-chloro-7′-methoxy-11′,12′-dimethyl-13′,13′-dioxido-15′-oxo-3,4-dihydro-2H-spiro[naphthalene-1,22′-[20]oxa[13]thia[1,14]diazatetracyclo[14.7.2.0˜3,6˜.0˜19,24˜]pentacosa[8,16,18,24]tetraen]-7′-yl)methyl)-1-piperazinyl)acetic acid] the IC50 was 35 pM.
